Results: PubChem BioAssay AID330 (DTP/NCI, 2004)
Where “and” joins values, the source holds several entries; their conditions need not be identical. Equal values may be shown once. Toxic doses and inconclusive results are not listed.

Test system: P388 leukemia ip, CD2F1 mice, survival T/C
Test: NCI In Vivo Anticancer Drug Screen. Data for tumor model P388 Leukemia (intraperitoneal) in CD2F1 (CDF1) mice
Conditions: endpoint: median survival time, higher = longer survival
Method in brief: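 Mice carrying the transplanted tumor received test compound or vehicle. Survival was recorded in each group, and the value is the treated-group measurement divided by that of the vehicle-treated control group.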

[1] = dose: 50.0 mg/kg/injection, schedule: Q01DX009 (ip), vehicle: saline with Tween-80
[2] = dose: 100.0 mg/kg/injection, schedule: Q01DX009 (ip), vehicle: saline with Tween-80
[3] = dose: 50.0 mg/kg/injection, schedule: Q01DX005 (ip), vehicle: saline with Tween-80
[4] = dose: 100.0 mg/kg/injection, schedule: Q01DX005 (ip), vehicle: saline with Tween-80
[5] = dose: 200.0 mg/kg/injection, schedule: Q01DX005 (ip), vehicle: saline with Tween-80
[6] = dose: 60.0 mg/kg/injection, schedule: Q01DX005 (ip), vehicle: saline with Tween-80
[7] = dose: 120.0 mg/kg/injection, schedule: Q01DX005 (ip), vehicle: saline with Tween-80
[8] = dose: 240.0 mg/kg/injection, schedule: Q01DX005 (ip), vehicle: saline with Tween-80
[9] = dose: 50.0 mg/kg/injection, schedule: Q01DX009 (ip), vehicle: saline
[10] = dose: 100.0 mg/kg/injection, schedule: Q01DX009 (ip), vehicle: saline
[11] = dose: 200.0 mg/kg/injection, schedule: Q01DX009 (ip), vehicle: saline
[12] = dose: 25.0 mg/kg/injection, schedule: Q01DX009 (ip), vehicle: saline with Tween-80

In the case of `O=C(O)c1ccc(N=Cc2ccc3c(c2)OCO3)cc1`, the T/C (dose: 25.0 mg/kg/injection, schedule: Q04DX003 (ip), vehicle: saline) is reported as 100 % of control, the T/C (dose: 50.0 mg/kg/injection, schedule: Q04DX003 (ip), vehicle: saline) is reported as 102 % of control and the T/C (dose: 100.0 mg/kg/injection, schedule: Q04DX003 (ip), vehicle: saline) is reported as 96 % of control. For the same molecule, the T/C (dose: 200.0 mg/kg/injection, schedule: Q04DX003 (ip), vehicle: saline) was 94 % of control.
`CCCCC(CCCC)=NNC(=S)SC` was tested, and the T/C [1] was 100 % of control and the T/C [2] was 100 % of control.
For `COc1cc2c(OC)cc1CCC1=CC(=O)C=C(CC2)C1=O`, the T/C [3] was 99 % of control, the T/C [4] was 103 % of control and the T/C [5] was 92 % of control.
`Cc1cc(=O)c(C#N)c(C)o1` was tested, and the T/C [6] was 98 % of control, the T/C [7] was 97 % of control and the T/C [8] was 90 % of control.
With `CCC(C)=C(C#N)NC(C)(C)C` (mixture of isomers) the T/C [9] was 106 % of control, the T/C [10] was 100 % of control and the T/C [11] was 110 % of control.
`OCCN(CCO)C(Cc1ccccc1)c1ccccc1` (stereo not given) was tested, and the T/C [3] was 110 % of control, the T/C [4] was 105 % of control and the T/C [5] was 110 % of control.
`Nc1nc(-c2ccccc2)c(-c2ccccc2)n1C(=O)NCCCl` was tested, and the T/C (dose: 12.5 mg/kg/injection, schedule: Q04DX002 (ip), vehicle: saline with Tween-80) was 114 % of control, the T/C (dose: 25.0 mg/kg/injection, schedule: Q04DX002 (ip), vehicle: saline with Tween-80) was 113 % of control and the T/C (dose: 50.0 mg/kg/injection, schedule: Q04DX002 (ip), vehicle: saline with Tween-80) was 113 % of control.
For `Cc1ccc(C)c2c1C(=O)c1c(C)ccc(C)c1C2=O`, the T/C (dose: 1.5 mg/kg/injection, schedule: Q01DX005 (ip), vehicle: Klucel (hydroxypropylcellulose) (HPC)) was 99 % of control, the T/C (dose: 3.0 mg/kg/injection, schedule: Q01DX005 (ip), vehicle: Klucel (hydroxypropylcellulose) (HPC)) was 94 % of control and the T/C (dose: 6.0 mg/kg/injection, schedule: Q01DX005 (ip), vehicle: Klucel (hydroxypropylcellulose) (HPC)) was 89 % of control. The T/C (dose: 50.0 mg/kg/injection, schedule: Q01DX005 (ip), vehicle: Klucel (hydroxypropylcellulose) (HPC)) was 90 % of control, the T/C (dose: 100.0 mg/kg/injection, schedule: Q01DX005 (ip), vehicle: Klucel (hydroxypropylcellulose) (HPC)) was 87 % of control and the T/C (dose: 200.0 mg/kg/injection, schedule: Q01DX005 (ip), vehicle: Klucel (hydroxypropylcellulose) (HPC)) was 86 % of control.
With `C=C[Se](=C(C(C)=O)C(C)=O)c1ccccc1` (stereo not given) the T/C (dose: 12.5 mg/kg/injection, schedule: Q01DX009 (ip), vehicle: saline with Tween-80) was 97 % of control, the T/C [12] was 96 % of control and the T/C [1] was 98 % of control. The T/C [9] was 92 % of control, the T/C [10] was 99 % of control and the T/C [11] was 92 % of control.
In the case of `COc1ccc(-c2cc(-c3ccc(OC)cc3OC)[n+](C)c(-c3ccc(OC)cc3OC)c2)cc1`, the T/C (dose: 0.78 mg/kg/injection, schedule: Q01DX009 (ip), vehicle: saline with Tween-80) is reported as 124 % of control and the T/C (dose: 1.56 mg/kg/injection, schedule: Q01DX009 (ip), vehicle: saline with Tween-80) is reported as 124 % of control.
In the case of `NC(C/[N+]([O-])=N/O)C(=O)O` (stereo not given), the T/C (dose: 8.78 mg/kg/injection, schedule: Q01DX010 (ip), vehicle: alkali diluted with saline) is reported as 119 % of control, the T/C (dose: 9.38 mg/kg/injection, schedule: Q01DX009 (ip), vehicle: alkali diluted with saline) is reported as 120 % of control and the T/C (dose: 13.2 mg/kg/injection, schedule: Q01DX010 (ip), vehicle: alkali diluted with saline) is reported as 124 % of control. The T/C (dose: 15.6 mg/kg/injection, schedule: Q01DX005 (ip), vehicle: saline with Tween-80) was 124 % of control, the T/C (dose: 15.6 mg/kg/injection, schedule: Q01DX005 (iv), vehicle: saline with Tween-80) was 107 % of control and the T/C (dose: 27.0 mg/kg/injection, schedule: Q01DX009 (ip), vehicle: alkali diluted with saline) was 161 % of control. For the same molecule, the T/C (dose: 30.0 mg/kg/injection, schedule: Q01DX005 (ip), vehicle: alkali diluted with saline) was 161 % of control, the T/C (dose: 31.3 mg/kg/injection, schedule: Q01DX005 (iv), vehicle: saline with Tween-80) was 103 % of control and the T/C (dose: 37.5 mg/kg/injection, schedule: Q01DX009 (ip), vehicle: alkali diluted with saline) was 161 % of control and 162 % of control. For the same molecule, the T/C (dose: 40.0 mg/kg/injection, schedule: Q01DX005 (ip), vehicle: alkali diluted with saline) was 150 % of control, the T/C (dose: 40.0 mg/kg/injection, schedule: Q01DX009 (ip), vehicle: alkali diluted with saline) was 165 % of control and the T/C (dose: 45.0 mg/kg/injection, schedule: Q01DX009 (ip), vehicle: alkali diluted with saline) was 152 % of control and 166 % of control. For the same molecule, the T/C (dose: 60.0 mg/kg/injection, schedule: Q01DX005 (ip), vehicle: alkali diluted with saline) was 185 % of control, the T/C (dose: 62.5 mg/kg/injection, schedule: Q01DX005 (iv), vehicle: saline with Tween-80) was 111 % of control and the T/C (dose: 62.5 mg/kg/injection, schedule: Q01DX009 (ip), vehicle: saline) was 150 % of control. For the same molecule, the T/C (dose: 62.5 mg/kg/injection, schedule: Q01DX009 (ip), vehicle: water) was 163 % of control, the T/C (dose: 66.7 mg/kg/injection, schedule: Q01DX009 (ip), vehicle: alkali diluted with saline) was 107 % of control and the T/C (dose: 75.0 mg/kg/injection, schedule: Q01DX009 (ip), vehicle: alkali diluted with water) was 166 % of control. For the same molecule, the T/C (dose: 80.0 mg/kg/injection, schedule: Q01DX005 (ip), vehicle: alkali diluted with saline) was 182 % of control, the T/C (dose: 80.0 mg/kg/injection, schedule: Q01DX009 (ip), vehicle: alkali diluted with saline) was 99 % of control and the T/C (dose: 100.0 mg/kg/injection, schedule: Q01DX010 (ip), vehicle: alkali diluted with saline) was 92 % of control. The T/C (dose: 108.0 mg/kg/injection, schedule: Q04DX003 (ip), vehicle: alkali diluted with saline) was 161 % of control, the T/C (dose: 112.5 mg/kg/injection, schedule: Q04DX003 (ip), vehicle: alkali diluted with saline) was 150 % of control and the T/C (dose: 120.0 mg/kg/injection, schedule: Q01DX005 (ip), vehicle: alkali diluted with saline) was 70 % of control. The T/C (dose: 125.0 mg/kg/injection, schedule: Q01DX005 (ip), vehicle: saline with Tween-80) was 157 % of control, the T/C (dose: 125.0 mg/kg/injection, schedule: Q01DX005 (iv), vehicle: saline with Tween-80) was 107 % of control and the T/C (dose: 125.0 mg/kg/injection, schedule: Q01DX009 (ip), vehicle: alkali diluted with saline) was 66 % of control and 86 % of control. The T/C (dose: 125.0 mg/kg/injection, schedule: Q01DX009 (ip), vehicle: saline) was 154 % of control, the T/C (dose: 150.0 mg/kg/injection, schedule: Q01DX009 (ip), vehicle: alkali diluted with water) was 96 % of control and the T/C (dose: 180.0 mg/kg/injection, schedule: Q04DX003 (ip), vehicle: alkali diluted with saline) was 166 % of control. For the same molecule, the T/C (dose: 200.0 mg/kg/injection, schedule: Q04DX003 (ip), vehicle: alkali diluted with water) was 155 % of control, the T/C (dose: 225.0 mg/kg/injection, schedule: Q04DX003 (ip), vehicle: alkali diluted with saline) was 178 % of control and the T/C (dose: 300.0 mg/kg/injection, schedule: Q04DX003 (ip), vehicle: alkali diluted with saline) was 175 % of control. For the same molecule, the T/C (dose: 450.0 mg/kg/injection, schedule: Q04DX003 (ip), vehicle: alkali diluted with saline) was 115 % of control and the T/C (dose: 500.0 mg/kg/injection, schedule: Q04DX003 (ip), vehicle: alkali diluted with saline) was 198 % of control.
With `CC1N=C(SCc2c(F)cccc2Cl)N2C(C)N=C(SCc3c(F)cccc3Cl)N12` (stereo not given) the T/C [3] was 96 % of control, the T/C [4] was 96 % of control and the T/C [5] was 93 % of control.
With `CC(C)Cc1nccs1` the T/C [12] was 105 % of control, the T/C [1] was 105 % of control and 110 % of control and the T/C [2] was 106 % of control and 117 % of control. The T/C (dose: 200.0 mg/kg/injection, schedule: Q01DX009 (ip), vehicle: saline with Tween-80) was 118 % of control.
With `COc1cc(C(C)c2cc3c(cc2OCC(C)=O)OCO3)cc(OC)c1OC` (stereo not given) the T/C [6] was 105 % of control, the T/C [7] was 97 % of control and the T/C [8] was 106 % of control.
For `Cn1c(=O)c2c(nc(CF)n2C)n(C)c1=O`, the T/C (dose: 100.0 mg/kg/injection, schedule: Q01DX001 (ip), vehicle: saline) was 92 % of control and the T/C (dose: 200.0 mg/kg/injection, schedule: Q01DX001 (ip), vehicle: saline) was 96 % of control.
`N#CC(OC(OC(C#N)c1ccccc1)c1ccccc1)c1ccccc1` (stereo not given) was tested, and the T/C [6] was 98 % of control, the T/C [7] was 94 % of control and the T/C [8] was 89 % of control.
For `Nc1ccc([N+](=O)[O-])cc1C(=O)NCCc1ccncc1`, the T/C [3] was 95 % of control, the T/C [4] was 97 % of control and the T/C [5] was 99 % of control.
With `COc1ccc(-c2c(-c3ccccc3)c(=O)oc3cc(OC)ccc23)cc1` the T/C [6] was 91 % of control and the T/C [7] was 87 % of control and 88 % of control.
